Series [1] is described as follows: 1-Octanol-water distribution coefficient, log P of compound. Format: physicochemical.
A short description of series [2]: Solubility of compound in 1% DMSO at 100 mg/ml. Format: physicochemical.
Series [3] can be described thus: Solubility of the compound in water. Format: physicochemical.
A short description of series [4]: Cytotoxicity against human LN229 cells assessed as concentration required for induction of cell death after 24 hrs by crystal violet staining based light microscopic analysis. Format: functional, LN-229.
Series [5] in a line: Solubility of the compound in DMSO/TFA. The class given is physicochemical.
Series [6] in a line: Solubility of the compound in CHCl3/TFA. Format: physicochemical.
The nature of series [7]: Solubility of the compound in chloroform. The class given is physicochemical.
Series [8] can be described thus: Solubility of the compound in DMSO. The class given is physicochemical.
Series [9] can be described thus: Solubility of the compound in ethanol. Format: physicochemical.
Series [10] is described as follows: Solubility of the compound in isopropanol. Format: physicochemical.
Series [11] is described as follows: Solubility of the compound in trifluoroacetic acid. Format: physicochemical.

Converted amounts (≈) assume the structure as drawn.

Turning to `CN1C(=O)C(C(=O)Nc2ccccc2)C(=O)N(C)C1=O`, the logP in series [1] is 0.4. Further, the solubility entry in [2] was “Insoluble”; in series [3] it was 140 µg/mL (≈ 509 µM). Moreover, the Activity in series [4] came out at 100 µg/mL.

Take `CN1C(=O)NC(=O)C(C(=O)NNC(=O)Nc2ccc(O)cc2)C1=O` (configuration not stated): the logP in series [1] was found to be 1.08. In addition, the solubility result is “Insoluble” in series [2]; 70 µg/mL (≈ 209 µM) in series [3]; “Insoluble” in series [5]; “Insoluble” in series [6]; “Insoluble” in series [7]; “Insoluble” in series [8]. In addition, the solubility result in series [9], in series [10] and in series [11] was “Insoluble” in each case.

In [1], `CN1C(=O)C(C(=O)NNC(=O)Nc2ccc(Cl)c(Cl)c2)C(=O)N(C)C1=O` showed a logP of 0.73. Also, the solubility result in series [2] is “Insoluble”; in [3] it was 500 µg/mL (≈ 1240 µM); in [5], “Insoluble”; in series [6], “Insoluble”; in series [7], “Insoluble”; in series [8], “Insoluble”. Also, the solubility result in series [9], in [10] and in [11] was “Insoluble” in each case. In addition, the Activity in series [4] worked out at 1 µg/mL.

On to `CN1C(=O)C(C(=O)NNC(=O)Nc2ccc(O)c([N+](=O)[O-])c2)C(=O)N(C)C1=O`, for which the solubility entry in [5], in [6], in [7], in series [8], in series [9] and in series [10] was “Insoluble” each time. The solubility result in [11] is recorded as “Insoluble”. Also, the Activity in series [4] came out at 10 µg/mL.

For `O=C1NC(=O)C(C(=O)NNC(=O)Nc2ccc(Cl)cc2)C(=O)N1`, the solubility entry is recorded as “Soluble” in series [5]; “Soluble” in series [6]; “Insoluble” in series [7]; “Insoluble” in series [8]; “Insoluble” in series [9]; “Insoluble” in [10]. The solubility entry in series [11] is recorded as “Soluble”. Also, the Activity in series [4] was 100 µg/mL.

As to `CN1C(=O)C(C(=O)NNC(=O)Nc2ccc([N+](=O)[O-])cc2)C(=O)N(C)C1=O`, the solubility entry in series [5], in [6], in series [7], in [8], in series [9] and in series [10] was “Insoluble” throughout. Further, in [11], the solubility entry was “Insoluble”. Further, in series [4], the Activity came to 10 µg/mL.

On to `O=C1NC(=O)C(C(=O)NNC(=O)Nc2ccccc2)C(=O)N1`, for which the solubility entry in series [5] is on record as “Soluble”; in series [6], “Soluble”; in series [7] it was “Insoluble”; in [8] it was “Insoluble”; in [9], “Insoluble”; in series [10] it was “Insoluble”. Moreover, in [11], the solubility result was “Soluble”. The Activity in series [4] worked out at 100 µg/mL.

On to `CN1C(=O)C(C(=O)NNC(=O)Nc2ccc(O)cc2)C(=O)N(C)C1=O`, for which the solubility entry in [5], in [6], in series [7], in series [8], in series [9] and in series [10] was “Insoluble” throughout. Also, in series [11], the solubility result is on record as “Insoluble”. Also, in series [4], the Activity was 10 µg/mL.

Take `N#Cc1ccc(NC(=O)NNC(=O)C2C(=O)NC(=O)N(c3ccccc3)C2=O)cc1` (configuration not stated): the solubility entry in series [5], in series [6], in [7], in series [8], in series [9] and in series [10] was “Insoluble” in each case. Besides, the solubility result in series [11] is recorded as “Insoluble”. The Activity in series [4] was found to be 100 µg/mL.

As for `CN1C(=O)C(C(=O)Nc2ccc(Cl)cc2)C(=O)N(C)C1=O`, in series [1], the log partition coefficient (logP) was found to be 1.18. Also, the solubility entry in series [2] was “Insoluble”; in series [3] it was 130 µg/mL (≈ 420 µM). The Activity in [4] was determined as 10 µg/mL.

Usually logP stands for the decadic logarithm of the partition coefficient of the neutral form, usually between octanol and water. Higher therefore signals a more lipophilic compound. Usually solubility stands for the dissolved amount per volume that the medium holds. A higher solubility goes with much dissolved substance.

Source of the values: ChEMBL document CHEMBL3862023, “Synthesis of N-aryl and N-arylcarbamoylamino derivatives of 1,3-diazinane-5-carboxamide and their activity against glioblastoma LN-229 cell line” (Bioorg Med Chem, 2016).
